Test results as given in PubChem BioAssay (NCI).
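Dose response: 5 concentrations. Exposure: 48 h. Format: 96-well plates. Endpoint: linear interpolation; highest concentration if not reached. At the TGI there is no net growth.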

What was measured:
Assay in all cases: NCI anticancer screen, dose series, 48 h
[1] = test system: SK-OV-3 ovarian
[2] = test system: HS 578T breast
[3] = test system: KM12 colon
[4] = test system: U251 CNS
[5] = test system: CAKI-1 renal
[6] = test system: NCI-H23 lung
[7] = test system: A549 NSCLC
[8] = test system: UACC-257 melanoma
[9] = test system: SN12C renal
[10] = test system: LOX IMVI melanoma
[11] = test system: MDA-MB-435
[12] = test system: 786-0 renal
[13] = test system: SK-MEL-2 melanoma
[14] = test system: MDA-N
[15] = test system: NCI-H460 lung
[16] = test system: COLO 205 colon
[17] = test system: ACHN renal
[18] = test system: IGROV1 ovarian
[19] = test system: MOLT-4 leukemia
[20] = test system: SF-295 CNS
[21] = test system: PC-3 prostate
[22] = test system: OVCAR-3 ovarian
[23] = test system: OVCAR-4 ovarian
[24] = test system: NCI/ADR-RES ovarian
[25] = test system: HOP-62 NSCLC
[26] = test system: NCI-H522 lung
[27] = test system: RPMI-8226 leukemia
[28] = test system: SW-620 colon
[29] = test system: SF-539 CNS
[30] = test system: TK-10 renal
[31] = test system: UACC-62 melanoma
[32] = test system: HOP-92 NSCLC
[33] = test system: HT29 colon
[34] = test system: K-562 leukemia
[35] = test system: A498 renal
[36] = test system: OVCAR-8 ovarian
[37] = test system: M14 melanoma
[38] = test system: EKVX NSCLC
[39] = test system: DU-145 prostate
[40] = test system: SF-268 CNS
[41] = test system: HL-60(TB) leukemia
[42] = test system: MCF7 breast
[43] = test system: UO-31 renal
[44] = test system: OVCAR-5 ovarian
[45] = test system: HCT-15 colon
[46] = test system: SNB-19 CNS
[47] = test system: HCT-116 colon
[48] = test system: SK-MEL-5 melanoma
[49] = test system: SR leukemia
[50] = test system: CCRF-CEM leukemia
[51] = test system: BT-549 breast
[52] = test system: MDA-MB-231 breast
[53] = test system: RXF 393 renal
[54] = test system: HCC-2998 colon
[55] = test system: MALME-3M melanoma
[56] = test system: SK-MEL-28 melanoma
[57] = test system: T-47D breast
[58] = test system: NCI-H226 lung
[59] = test system: SNB-75 CNS

## CC(C)=CCc1cc(/C=C/C(=O)O)cc(CC=C(C)C)c1O
[1]
  TGI: > 100 µM
[2]
  TGI: > 100 µM
[3]
  TGI: > 100 µM
[4]
  TGI: > 100 µM
[5]
  TGI: > 100 µM
[6]
  TGI: > 100 µM
[7]
  TGI: > 100 µM
[8]
  TGI: > 100 µM
[9]
  TGI: > 100 µM
[10]
  TGI: > 100 µM
[11]
  TGI: > 100 µM
[12]
  TGI: > 100 µM
[13]
  TGI: > 100 µM
[14]
  TGI: > 100 µM
[15]
  TGI: > 100 µM
[16]
  TGI: > 100 µM
[17]
  TGI: > 100 µM
[18]
  TGI: > 100 µM
[19]
  TGI: > 100 µM
[20]
  TGI: > 100 µM
[21]
  TGI: > 100 µM
[22]
  TGI: > 100 µM
[23]
  TGI: > 100 µM
[24]
  TGI: > 100 µM
[25]
  TGI: > 100 µM
[26]
  TGI: > 100 µM
[27]
  TGI: > 100 µM
[28]
  TGI: > 100 µM
[29]
  TGI: > 100 µM
[30]
  TGI: > 100 µM
[31]
  TGI: > 100 µM
[32]
  TGI: > 100 µM
[33]
  TGI: > 100 µM
[34]
  TGI: > 100 µM
[35]
  TGI: > 100 µM
[36]
  TGI: > 100 µM
[37]
  TGI: > 100 µM
[38]
  TGI: > 100 µM
[39]
  TGI: > 100 µM
[40]
  TGI: > 100 µM
[41]
  TGI: > 100 µM
[42]
  TGI: > 100 µM
[43]
  TGI: > 100 µM
[44]
  TGI: > 100 µM
[45]
  TGI: > 100 µM
[46]
  TGI: > 100 µM
[47]
  TGI: > 100 µM
[48]
  TGI: > 100 µM
[49]
  TGI: > 100 µM
[50]
  TGI: > 100 µM
[51]
  TGI: > 100 µM
[52]
  TGI: > 100 µM

## C=C1CC[C@@H]2[C@](C)(COC(=O)CCC(=O)O)CCC[C@@]2(C)[C@@H]1CCC1=CC(=O)OC1
[1]
  TGI: > 100 µM
[53]
  TGI: > 100 µM
[2]
  TGI: > 100 µM
[3]
  TGI: > 100 µM
[4]
  TGI: > 100 µM
[5]
  TGI: > 100 µM
[6]
  TGI: > 100 µM
[7]
  TGI: > 100 µM
[54]
  TGI: > 100 µM
[8]
  TGI: > 100 µM
[9]
  TGI: > 100 µM
[10]
  TGI: > 100 µM
[11]
  TGI: > 100 µM
[12]
  TGI: > 100 µM
[13]
  TGI: > 100 µM
[14]
  TGI: > 100 µM
[55]
  TGI: > 100 µM
[16]
  TGI: > 100 µM
[17]
  TGI: > 100 µM
[18]
  TGI: > 100 µM
[19]
  TGI: > 100 µM
[20]
  TGI: > 100 µM
[21]
  TGI: > 100 µM
[22]
  TGI: > 100 µM
[23]
  TGI: > 100 µM
[56]
  TGI: > 100 µM
[24]
  TGI: > 100 µM
[25]
  TGI: > 100 µM
[57]
  TGI: > 100 µM
[26]
  TGI: > 100 µM
[27]
  TGI: > 100 µM
[28]
  TGI: > 100 µM
[29]
  TGI: > 100 µM
[30]
  TGI: > 100 µM
[31]
  TGI: > 100 µM
[32]
  TGI: > 100 µM
[33]
  TGI: > 100 µM
[34]
  TGI: > 100 µM
[35]
  TGI: > 100 µM
[36]
  TGI: > 100 µM
[37]
  TGI: > 100 µM
[38]
  TGI: > 100 µM
[39]
  TGI: 38.7 µM
[40]
  TGI: > 100 µM
[41]
  TGI: > 100 µM
[58]
  TGI: > 100 µM
[42]
  TGI: > 100 µM
[43]
  TGI: > 100 µM
[59]
  TGI: > 100 µM
[44]
  TGI: > 100 µM
[45]
  TGI: > 100 µM
[46]
  TGI: > 100 µM
[47]
  TGI: > 100 µM
[48]
  TGI: > 100 µM
[50]
  TGI: > 100 µM
[51]
  TGI: > 100 µM
[52]
  TGI: > 100 µM

## O=C1c2ccccc2C(=O)N1NC1=NCCN1
[1]
  TGI: > 100 µM
[53]
  TGI: > 100 µM
[3]
  TGI: > 100 µM
[4]
  TGI: > 100 µM
[5]
  TGI: > 100 µM
[6]
  TGI: > 100 µM
[7]
  TGI: > 100 µM
[54]
  TGI: > 100 µM
[8]
  TGI: > 100 µM
[9]
  TGI: > 100 µM
[10]
  TGI: > 100 µM
[11]
  TGI: > 100 µM
[12]
  TGI: > 100 µM
[13]
  TGI: > 100 µM
[14]
  TGI: > 100 µM
[55]
  TGI: > 100 µM
[15]
  TGI: > 100 µM
[16]
  TGI: > 100 µM
[17]
  TGI: > 100 µM
[18]
  TGI: > 100 µM
[19]
  TGI: > 100 µM
[20]
  TGI: > 100 µM
[21]
  TGI: > 100 µM
[22]
  TGI: > 100 µM
[23]
  TGI: > 100 µM
[56]
  TGI: > 100 µM
[24]
  TGI: > 100 µM
[25]
  TGI: > 100 µM
[57]
  TGI: > 100 µM
[26]
  TGI: > 100 µM
[27]
  TGI: > 100 µM
[28]
  TGI: > 100 µM
[29]
  TGI: > 100 µM
[30]
  TGI: > 100 µM
[31]
  TGI: > 100 µM
[33]
  TGI: > 100 µM
[34]
  TGI: > 100 µM
[35]
  TGI: > 100 µM
[36]
  TGI: > 100 µM
[37]
  TGI: > 100 µM
[38]
  TGI: > 100 µM
[39]
  TGI: > 100 µM
[40]
  TGI: > 100 µM
[41]
  TGI: > 100 µM
[58]
  TGI: > 100 µM
[42]
  TGI: > 100 µM
[44]
  TGI: > 100 µM
[45]
  TGI: > 100 µM
[46]
  TGI: > 100 µM
[47]
  TGI: > 100 µM
[48]
  TGI: > 100 µM
[49]
  TGI: > 100 µM
[50]
  TGI: > 100 µM
[51]
  TGI: > 100 µM
[52]
  TGI: > 100 µM

## CC(=O)OCC1OC(O[C@H]2C=C[C@@H](C(=O)OCc3ccccc3)n3c(=O)n(-c4ccccc4)c(=O)n32)C(OC(C)=O)C(OC(C)=O)C1OC(C)=O (stereo partly drawn)
[1]
  TGI: 33.6 µM
[53]
  TGI: 4.07 µM
[2]
  TGI: 4.55 µM
[3]
  TGI: 12.2 µM
[4]
  TGI: 4.81 µM
[5]
  TGI: 2.98 µM
[6]
  TGI: 9.02 µM
[7]
  TGI: 35.3 µM
[54]
  TGI: 3.22 µM
[8]
  TGI: 3.73 µM
[9]
  TGI: 3.88 µM
[11]
  TGI: 4.45 µM
[12]
  TGI: 4.51 µM
[13]
  TGI: 10.1 µM
[14]
  TGI: 7.1 µM
[15]
  TGI: 3.05 µM
[16]
  TGI: 8.75 µM
[17]
  TGI: 3.09 µM
[18]
  TGI: 6.13 µM
[19]
  TGI: 5.72 µM
[20]
  TGI: 25.3 µM
[21]
  TGI: 13 µM
[22]
  TGI: 3.18 µM
[23]
  TGI: 6.89 µM
[56]
  TGI: 5.28 µM
[24]
  TGI: > 100 µM
[57]
  TGI: 8.33 µM
[26]
  TGI: 2.83 µM
[27]
  TGI: 3.31 µM
[28]
  TGI: 17 µM
[29]
  TGI: 3.21 µM
[30]
  TGI: 3.92 µM
[31]
  TGI: 3.18 µM
[32]
  TGI: 3.9 µM
[33]
  TGI: 3.49 µM
[34]
  TGI: 8.72 µM
[35]
  TGI: 5.33 µM
[36]
  TGI: 7.41 µM
[37]
  TGI: 2.95 µM
[38]
  TGI: 3.9 µM
[39]
  TGI: 8.47 µM
[40]
  TGI: 4.23 µM
[41]
  TGI: > 100 µM
[58]
  TGI: 12.5 µM
[43]
  TGI: 2.93 µM
[59]
  TGI: 23.5 µM
[44]
  TGI: 4.75 µM
[45]
  TGI: 2.44 µM
[46]
  TGI: 30.1 µM
[48]
  TGI: 5.66 µM
[49]
  TGI: 5.92 µM
[50]
  TGI: > 19.9 µM
[51]
  TGI: 3.29 µM
[52]
  TGI: 4.12 µM
